# Results taken from ChEMBL document CHEMBL5543160, “Psychoplastogenic DYRK1A Inhibitors with Therapeutic Effects Relevant to Alzheimer's Disease” (J Med Chem, 2024).
# Calls of active or inactive are those of the source. The rule behind the calls is not given here.
# Experiments:
# [1] = target: Microtubule-associated protein tau (Rattus norvegicus) (UniProt P19332); assay: Inhibition of okadaic acid-induced Tau hyperphosphorylation Ser202/Thr205 residues in Sprague-Dawley rat cortical neuron at 1 to 50 uM preincubated with compound for 24 hrs followed by okadaic acid addition and measured after 1 hrs by fluorescence based immunohistochemistry analysis; type: cell-based; settings: dose 1-50 µM
# Sequence of Microtubule-associated protein tau (Rattus norvegicus) (P19332 whole entry): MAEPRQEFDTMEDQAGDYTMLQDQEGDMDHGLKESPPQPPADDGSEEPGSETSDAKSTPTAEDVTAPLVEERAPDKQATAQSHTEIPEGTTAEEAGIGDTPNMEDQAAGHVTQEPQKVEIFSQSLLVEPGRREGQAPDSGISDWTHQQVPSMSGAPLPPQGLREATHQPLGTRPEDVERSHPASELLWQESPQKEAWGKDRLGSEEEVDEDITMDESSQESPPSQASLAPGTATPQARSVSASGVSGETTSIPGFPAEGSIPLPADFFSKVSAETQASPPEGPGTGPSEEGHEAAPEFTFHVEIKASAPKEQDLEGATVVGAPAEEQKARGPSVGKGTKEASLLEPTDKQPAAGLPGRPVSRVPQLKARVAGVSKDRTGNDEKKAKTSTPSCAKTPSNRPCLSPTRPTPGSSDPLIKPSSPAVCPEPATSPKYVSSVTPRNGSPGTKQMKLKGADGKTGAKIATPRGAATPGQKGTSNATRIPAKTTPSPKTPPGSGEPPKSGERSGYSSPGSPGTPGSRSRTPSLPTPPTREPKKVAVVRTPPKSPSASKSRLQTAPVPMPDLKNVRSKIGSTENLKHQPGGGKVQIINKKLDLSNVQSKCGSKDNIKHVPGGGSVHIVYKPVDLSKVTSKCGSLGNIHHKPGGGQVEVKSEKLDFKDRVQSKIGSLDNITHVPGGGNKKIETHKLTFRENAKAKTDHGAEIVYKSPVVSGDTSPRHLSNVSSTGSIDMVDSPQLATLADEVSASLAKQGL
# Cortical neurone [2] = assay: Psychoplastogenic effect in Sprague-Dawley rat cortical neuron assessed as increase in dendritic spine density at 10 uM incubated for 24 hrs by spinogenesis based confocal microscopic analysis; type: functional, cell-based
# [3] = target: 5-hydroxytryptamine receptor 2A (Homo sapiens) (UniProt P28223); assay: Agonist activity at 5-HT2AR (unknown origin) in human PSYLI2 cells assessed as increase in biosensor activation at 10 uM incubated for 5 mins by PsychLight2 assay; type: functional, cell-based; settings: PSYLI2 cell
# Sequence of 5-hydroxytryptamine receptor 2A (Homo sapiens) (P28223 whole entry): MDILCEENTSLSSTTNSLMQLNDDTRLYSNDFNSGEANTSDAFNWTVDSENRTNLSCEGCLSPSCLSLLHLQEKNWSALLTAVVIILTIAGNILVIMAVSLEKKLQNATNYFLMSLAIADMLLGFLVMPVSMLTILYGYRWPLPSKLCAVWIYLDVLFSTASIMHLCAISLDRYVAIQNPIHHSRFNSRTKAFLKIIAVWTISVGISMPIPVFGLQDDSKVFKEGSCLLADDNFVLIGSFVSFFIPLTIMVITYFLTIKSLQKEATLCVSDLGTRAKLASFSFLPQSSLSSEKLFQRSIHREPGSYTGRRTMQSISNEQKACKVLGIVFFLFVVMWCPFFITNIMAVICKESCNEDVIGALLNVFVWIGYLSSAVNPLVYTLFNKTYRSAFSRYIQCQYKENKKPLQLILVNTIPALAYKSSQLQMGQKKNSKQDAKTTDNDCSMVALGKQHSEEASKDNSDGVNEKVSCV
# [4] = target: 5-hydroxytryptamine receptor 2A (Homo sapiens) (UniProt P28223); assay: Antagonist activity at 5-HT2AR (unknown origin) in human PSYLI2 cells assessed as decrease in fluorescence at 10 uM pretreated with 5-HT for 10 mins followed by compound addition and measured after 5 mins by PsychLight2 assay; type: functional, cell-based; settings: PSYLI2 cell, filed as antagonist
# [5] = target: Dual specificity tyrosine-phosphorylation-regulated kinase 1A (Homo sapiens, UniProt Q13627)
# Cortical neurone [6] = assay: Induction of neurite outgrowth in Wistar rat Primary cortical neurons assessed as increase in neurite length incubated for 72 hrs by imaging analysis; type: functional, cell-based; settings: dose 0.3-10 µM
# Cortical neurone [7] = assay: Induction of neurite outgrowth in Wistar rat Primary cortical neurons assessed as increase in neurite branching incubated for 72 hrs by imaging analysis; type: functional, cell-based; settings: dose 0.3-10 µM
# [8] = target: Cyclin-dependent kinase 7 (Homo sapiens) (UniProt P50613); assay: Inhibition of CDK7 (unknown origin) at 10 uM by DiscoverX KINOMEscan assay
# Sequence of Cyclin-dependent kinase 7 (Homo sapiens) (P50613 whole entry, canonical isoform): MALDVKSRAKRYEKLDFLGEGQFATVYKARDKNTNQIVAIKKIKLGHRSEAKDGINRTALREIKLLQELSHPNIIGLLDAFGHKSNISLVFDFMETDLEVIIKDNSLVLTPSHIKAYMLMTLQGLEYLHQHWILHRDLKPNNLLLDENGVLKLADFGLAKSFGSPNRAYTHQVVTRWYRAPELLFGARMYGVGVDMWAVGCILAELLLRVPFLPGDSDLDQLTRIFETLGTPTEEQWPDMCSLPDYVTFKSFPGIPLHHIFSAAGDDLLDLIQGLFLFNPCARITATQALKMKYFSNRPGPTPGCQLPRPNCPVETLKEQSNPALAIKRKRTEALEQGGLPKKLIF
# [9] = target: Phosphatidylinositol 4,5-bisphosphate 3-kinase catalytic subunit gamma isoform (Homo sapiens) (UniProt P48736); assay: Inhibition of PIK3CG (unknown origin) at 10 uM by DiscoverX KINOMEscan assay
# Sequence of Phosphatidylinositol 4,5-bisphosphate 3-kinase catalytic subunit gamma isoform (Homo sapiens) (P48736 whole entry, looked up, canonical isoform): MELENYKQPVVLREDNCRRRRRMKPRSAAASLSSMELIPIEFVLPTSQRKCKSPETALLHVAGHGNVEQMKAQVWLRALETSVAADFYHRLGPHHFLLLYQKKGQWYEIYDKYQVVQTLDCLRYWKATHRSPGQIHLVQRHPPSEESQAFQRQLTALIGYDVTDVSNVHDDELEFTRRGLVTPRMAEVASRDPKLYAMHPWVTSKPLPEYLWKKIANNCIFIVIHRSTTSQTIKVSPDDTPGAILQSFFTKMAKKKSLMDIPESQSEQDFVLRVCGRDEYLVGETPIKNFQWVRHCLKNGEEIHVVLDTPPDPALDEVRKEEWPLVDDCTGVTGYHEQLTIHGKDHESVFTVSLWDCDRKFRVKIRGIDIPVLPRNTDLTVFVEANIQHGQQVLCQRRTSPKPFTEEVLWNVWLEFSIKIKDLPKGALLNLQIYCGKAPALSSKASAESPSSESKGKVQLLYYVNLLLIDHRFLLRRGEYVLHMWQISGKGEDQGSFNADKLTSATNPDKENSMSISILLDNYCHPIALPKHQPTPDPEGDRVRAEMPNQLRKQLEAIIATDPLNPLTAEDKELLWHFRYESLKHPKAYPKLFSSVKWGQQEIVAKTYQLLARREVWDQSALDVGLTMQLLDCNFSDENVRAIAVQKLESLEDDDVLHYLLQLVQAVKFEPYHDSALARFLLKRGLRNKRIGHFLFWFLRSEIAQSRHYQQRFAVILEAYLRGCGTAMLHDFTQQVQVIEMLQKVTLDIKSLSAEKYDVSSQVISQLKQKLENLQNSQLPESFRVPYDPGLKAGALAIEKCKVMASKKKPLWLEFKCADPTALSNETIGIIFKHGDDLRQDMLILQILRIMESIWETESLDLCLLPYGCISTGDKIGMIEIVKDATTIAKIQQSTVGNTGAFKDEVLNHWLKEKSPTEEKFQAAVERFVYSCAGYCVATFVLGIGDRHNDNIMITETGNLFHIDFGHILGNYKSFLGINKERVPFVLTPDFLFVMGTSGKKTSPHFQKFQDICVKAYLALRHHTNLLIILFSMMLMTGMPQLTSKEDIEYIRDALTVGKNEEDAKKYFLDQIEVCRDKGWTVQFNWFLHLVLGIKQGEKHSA
# [10] = target: Casein kinase I (Homo sapiens) (UniProt Q9HCP0+P78368+P48730+P49674+P48729); assay: Inhibition of CK1 (unknown origin) at 10 uM by DiscoverX KINOMEscan assay; type: protein assay
# Homo sapiens = organism: Homo sapiens; assay: Inhibition of CAMK (unknown origin) at 10 uM by DiscoverX KINOMEscan assay
# [11] = target: Microtubule-associated protein tau (Rattus norvegicus) (UniProt P19332); assay: Inhibition of okadaic acid-induced Tau hyperphosphorylation Ser202/Thr205 residues in Sprague-Dawley rat cortical neuron at 50 uM preincubated with compound for 24 hrs followed by okadaic acid addition and measured after 1 hrs by fluorescence based immunohistochemistry analysis; type: cell-based
# [12] = Toxicity in C57BL/6J mouse assessed as induction of head-twitch response upto 30 mg/kg, ip measured for 10 mins; type: organism-based; settings: in vivo
# [13] = Toxicity in C57BL/6J mouse assessed as effect on locomotion upto 30 mg/kg, ip measured for 10 mins; type: organism-based; settings: in vivo
# Mus musculus = assay: Antipsychotic activity in C57BL/6J mouse assessed as reduction in 5-MeO-DMT-induced head-twitch response at 30 mg/kg, ip pretreated with compound for 10 mins followed by 5-MeO-DMT addition and measured after 20 mins; type: functional, organism-based; settings: time 30.0 min
Compound,inhibition [1],Activity (Cortical neurone [2]),Activity [3],Activity [4],IC50 [5] [nM],further results
CN(C)CCc1c[nH]c2ccccc12,inactive,Active,,,,
COc1ccc2c(c1)S/C(=C\C(C)=O)N2CCN(C)C,,,inactive,Active,,
COc1ccc2c(c1)c1ccnc(C)c1n2CCN(C)C,,,inactive,Active,> 10000,
COc1ccc2c(c1)N(CCN(C)C)/C(=C/C(C)=O)S2,inactive,,,,561,Activity (Cortical neurone [6]): Dose-Dependent Effect; Activity (Cortical neurone [7]): Dose-Dependent Effect
Cc1nccc2c3ccccc3n(CCN(C)C)c12,,,inactive,Active,> 10000,
COc1ccc2c(c1)[nH]c1c(C)nccc12,Active,inactive,,,,inhibition [8]: Active; inhibition [9]: Active; inhibition [10]: Active; inhibition (Homo sapiens): Active
COc1ccc2c3ccnc(C)c3n(CCN(C)C)c2c1.O=C(O)/C=C/C(=O)O,,Active,,,209,Activity (Cortical neurone [6]): Dose-Dependent Effect; Activity (Cortical neurone [7]): Dose-Dependent Effect; inhibition [11]: Active; Activity [12]: Non-Toxic; Activity [13]: Non-Toxic; Activity (Mus musculus): Active
CC(=O)/C=C1\Sc2ccccc2N1CCN(C)C,,,inactive,Active,,
NCCc1c[nH]c2ccc(O)cc12,,,,,,Activity ([3]; filed as agonist): Active
